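1) Cells in 96-well plates. 2) Compound, 48 h, 5 concentrations. 3) Linear interpolation between surrounding doses. 4) Unreached endpoint = highest concentration. At the GI50, growth is halved.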 The source made the active and inactive calls. No stated cut-off is given here; in the data, active = GI50 up to about 1.1 µM and inactive = higher.
Columns and labels:
Assay in all cases: inhibition of tumour cell growth, NCI panel, 48 h
[1] = tested on: SR
[2] = tested on: DLD-1
[3] = tested on: SF-295
[4] = tested on: IGROV-1
[5] = tested on: MOLT-4
[6] = tested on: 786-0
[7] = tested on: UACC-257
[8] = tested on: KM-20L2
[9] = tested on: HOP-18
[10] = tested on: SN12C
[11] = tested on: SW-620
[12] = tested on: RPMI-8226
[13] = tested on: HOP-62
[14] = tested on: SNB-19
[15] = tested on: M19-MEL
[16] = tested on: SK-MEL-2
[17] = tested on: UO-31
[18] = tested on: CAKI-1
[19] = tested on: UACC-62
[20] = tested on: NCI-H460
[21] = tested on: HT-29
[22] = tested on: OVCAR-4
[23] = tested on: K562
[24] = tested on: Malme-3M
[25] = tested on: SNB-78
[26] = tested on: KM12
[27] = tested on: SK-MEL-5
[28] = tested on: SK-MEL-28
[29] = tested on: DMS-273
[30] = tested on: TK-10
[31] = tested on: NCI-H226
[32] = tested on: SF-539
[33] = tested on: HCT-116
[34] = tested on: NCI-H23
[35] = tested on: EKVX
[36] = tested on: A549
[37] = tested on: HCC 2998
[38] = tested on: RXF 393
[39] = tested on: M14
[40] = tested on: LXFL 529
[41] = tested on: HCT-15
[42] = tested on: COLO 205
[43] = tested on: SK-OV-3
[44] = tested on: SF-268
[45] = tested on: A498
[46] = tested on: NCI-H522
[47] = tested on: ACHN
[48] = tested on: SNB-75
[49] = tested on: OVCAR-5
[50] = tested on: DMS-114
[51] = tested on: U-251
[52] = tested on: HOP-92
[53] = tested on: OVCAR-8
[54] = tested on: LOX IMVI
[55] = tested on: OVCAR-3
[56] = tested on: CCRF-CEM
[57] = tested on: HL-60
[58] = tested on: XF498

Measured: GI50

CC(=O)OCC1OC(OC2C(COC(C)=O)OC(Sc3ccccc3C)C(OC(C)=O)C2OC(C)=O)C(OC(C)=O)C(OC(C)=O)C1OC(C)=O (stereo not given)
inactive: [1] > 100 µM | [2] > 100 µM | [3] > 100 µM | [4] > 100 µM | [5] > 100 µM | [6] > 100 µM | [7] > 100 µM | [8] > 100 µM | [9] > 100 µM | [10] > 100 µM | [11] > 100 µM | [12] > 100 µM | [13] > 100 µM | [14] > 100 µM | [15] > 100 µM | [16] > 100 µM | [17] > 100 µM | [18] > 100 µM | [19] > 100 µM | [20] > 100 µM | [21] > 100 µM | [22] > 100 µM | [23] > 100 µM | [24] > 100 µM | [25] > 100 µM | [26] > 100 µM | [27] > 100 µM | [28] > 100 µM | [29] > 100 µM | [30] > 100 µM | [31] > 100 µM | [32] > 100 µM | [33] > 100 µM | [34] > 100 µM | [35] > 100 µM | [36] > 100 µM | [37] > 100 µM | [38] > 100 µM | [39] > 100 µM | [40] > 100 µM | [42] > 100 µM | [43] > 100 µM | [44] > 100 µM | [45] > 100 µM | [46] > 100 µM | [47] > 100 µM | [48] > 100 µM | [49] > 100 µM | [50] > 100 µM | [51] > 100 µM | [52] 55 µM
> 100 µM: [41]

c1ccc2c(c1)[nH]c1c2nc2ccccn21
inactive: [2] > 100 µM | [4] > 100 µM | [5] > 100 µM | [6] > 100 µM | [7] > 100 µM | [8] > 100 µM | [9] > 100 µM | [11] > 100 µM | [12] > 100 µM | [14] > 100 µM | [17] > 100 µM | [18] > 100 µM | [19] > 100 µM | [20] > 100 µM | [21] > 100 µM | [22] > 100 µM | [23] > 100 µM | [25] > 100 µM | [26] > 100 µM | [27] > 100 µM | [28] > 100 µM | [29] > 100 µM | [30] 69 µM | [53] > 100 µM | [33] > 100 µM | [34] > 100 µM | [35] > 100 µM | [36] > 100 µM | [39] > 100 µM | [40] > 100 µM | [42] > 100 µM | [43] > 100 µM | [44] > 100 µM | [45] > 100 µM | [47] > 100 µM | [49] > 100 µM | [50] > 100 µM | [51] > 100 µM | [52] > 100 µM
> 100 µM: [41]

COC(=O)c1c(C)cc2c(c1O)C1(O)C(=O)c3cc4c(c(O)c3C(=O)C1(OC)C(O)C2)C(=O)C=C(NC1OC(C)C(OC)C(O)C1OC)C4=O (stereo not given)
active: [1] 0.0405 µM | [2] 0.0199 µM | [3] 0.0331 µM | [4] 0.0134 µM | [5] 0.0208 µM | [54] 0.0342 µM | [6] 0.0753 µM | [7] 0.017 µM | [8] 0.104 µM | [10] 0.139 µM | [11] 0.0416 µM | [12] 0.0157 µM | [13] 0.277 µM | [14] 0.159 µM | [15] 0.0196 µM | [16] 0.0284 µM | [17] 0.14 µM | [18] 0.225 µM | [19] 0.0139 µM | [20] 0.0986 µM | [21] 0.0493 µM | [22] 0.0687 µM | [23] 0.0204 µM | [24] 0.0538 µM | [25] 0.0521 µM | [26] 0.129 µM | [29] 0.103 µM | [30] 0.114 µM | [31] 0.189 µM | [53] 0.0695 µM | [32] 0.0605 µM | [55] 0.11 µM | [33] 0.0378 µM | [34] 0.0152 µM | [35] 0.241 µM | [56] 0.0189 µM | [36] 0.0619 µM | [37] 0.138 µM | [38] 0.0161 µM | [39] 0.119 µM | [40] 0.0679 µM | [42] 0.0532 µM | [43] 0.298 µM | [44] 0.142 µM | [45] 0.259 µM | [46] 0.0552 µM | [57] 0.0194 µM | [47] 0.0681 µM | [48] 0.141 µM | [58] 114 nM | [49] 0.205 µM | [50] 0.0104 µM | [51] 0.207 µM | [52] 0.26 µM
0.106 µM: [41]

O=C(c1ccco1)N(C(=S)N1CCN(c2ccccc2)CC1)C1CCCCC1
inactive: [1] > 100 µM | [2] 85.1 µM | [3] 79.8 µM | [4] > 100 µM | [5] > 100 µM | [54] 57.3 µM | [6] > 100 µM | [7] 72.4 µM | [8] 90.4 µM | [9] > 100 µM | [10] > 100 µM | [11] > 100 µM | [12] > 100 µM | [13] > 100 µM | [14] > 100 µM | [15] > 100 µM | [16] > 100 µM | [17] 33.3 µM | [18] > 100 µM | [19] > 100 µM | [20] 76 µM | [21] 63.5 µM | [22] > 100 µM | [23] > 100 µM | [24] > 100 µM | [25] > 100 µM | [26] > 100 µM | [27] 56.4 µM | [28] > 10 µM | [29] 59.4 µM | [30] > 100 µM | [53] > 100 µM | [32] > 100 µM | [55] > 100 µM | [33] 62.8 µM | [34] > 100 µM | [56] > 100 µM | [36] 67.1 µM | [38] 52.6 µM | [39] 98.4 µM | [40] 95.5 µM | [42] 45 µM | [43] > 100 µM | [44] > 100 µM | [46] > 100 µM | [57] > 100 µM | [47] > 100 µM | [48] 50.5 µM | [49] > 100 µM | [50] 38.7 µM | [51] > 100 µM | [52] > 100 µM
94.6 µM: [41]

Source: ChEMBL document CHEMBL1201862, “PubChem BioAssay data set” (2004)
